Read-outs that look alike come from different tables or passages of the source.
Assays:
Assay in all cases: Test C pre/postemergence
Assay type in all cases: in vivo
[1] = system: eastern black nightshade (Solanum ptycanthum); settings: Preemergence
Summary of the method: (§1)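 Rating scale 0–100: 0 means no effect, 100 complete control; taken visually 12 to 14 days post-treatment versus controls. Pre- and postemergence greenhouse applications, postemergence at 1- to 4-leaf stage, non-phytotoxic solvent with surfactant as carrier.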

[2] = system: velvetleaf (Abutilon theophrasti)
Summary of the method: as §1

[3] = system: yellow nutsedge (Cyperus esculentus)
Summary of the method: as §1

[4] = Solanum, pre-emergence, 31 g ai/ha, scale 0 to 100, 0 no effect, 100 complete control, read-out: Plant response rating, Nightshade
[5] = Solanum, pre-emergence, 62 g ai/ha, scale 0 to 100, 0 no effect, 100 complete control, read-out: Plant response rating, Nightshade
[6] = Abutilon theophrasti, post-emergence, Postemergence, 31 g ai/ha, read-out: Plant response rating (scale of 0 to 100), Velvetleaf
[7] = Abutilon theophrasti, post-emergence, Postemergence, 125 g ai/ha, scale 0 to 100 (0 no effect, 100 complete control), read-out: Velvetleaf plant response rating
[8] = Abutilon theophrasti, post-emergence, Postemergence, 250 g ai/ha, scale 0 to 100, read-out: Plant response rating, Velvetleaf
[9] = Abutilon theophrasti, pre-emergence, Preemergence, 31 g ai/ha, scale 0 to 100, 0 no effect, 100 complete control, read-out: Plant response rating, Velvetleaf
[10] = Abutilon theophrasti, pre-emergence, Preemergence, 62 g ai/ha, scale 0 to 100, 0 no effect, 100 complete control, read-out: Plant response rating, Velvetleaf
[11] = Cyperus, post-emergence, Postemergence, 31 g ai/ha, read-out: Plant response rating (scale of 0 to 100), Nutsedge, Yellow
[12] = Cyperus, post-emergence, Postemergence, 125 g ai/ha, scale 0 to 100 (0 no effect, 100 complete control), read-out: Nutsedge, Yellow plant response rating
[13] = Cyperus, post-emergence, Postemergence, 250 g ai/ha, scale 0 to 100, read-out: Plant response rating, Nutsedge, Yellow
[14] = Cyperus, pre-emergence, Preemergence, 31 g ai/ha, scale 0 to 100, 0 no effect, 100 complete control, read-out: Plant response rating, Nutsedge, Yellow
[15] = Cyperus, pre-emergence, Preemergence, 62 g ai/ha, scale 0 to 100, 0 no effect, 100 complete control, read-out: Plant response rating, Nutsedge, Yellow
[16] = 62 g ai/ha, scale 0 to 100, 0 no effect, 100 complete control
[17] = Postemergence, 62 g ai/ha, scale 0 to 100 (0 no effect, 100 complete control)
[18] = Postemergence, 125 g ai/ha, scale 0 to 100 (0 no effect, 100 complete control)
[19] = Postemergence, 250 g ai/ha, scale 0 to 100
[20] = Postemergence, 500 g ai/ha, scale 0 to 100
[21] = Preemergence, 62 g ai/ha, scale 0 to 100, 0 no effect, 100 complete control
[22] = Preemergence, 125 g ai/ha, scale 0 to 100
[23] = Preemergence, 250 g ai/ha, scale 0 to 100
[24] = Preemergence, 500 g ai/ha, scale 0 to 100
[25] = Preemergence, 16 g ai/ha, scale 0 to 100, 0 no effect, 100 complete control
[26] = Preemergence, 31 g ai/ha, scale 0 to 100, 0 no effect, 100 complete control

Compound	pest or weed control at 31 g/ha [1, 4] [%]	pest or weed control at 62 g/ha [1, 5] [%]	pest or weed control at 31 g/ha [2, 6] [%]	pest or weed control at 125 g/ha [2, 7] [%]	pest or weed control at 250 g/ha [2, 8] [%]	pest or weed control at 31 g/ha [2, 9] [%]	pest or weed control at 62 g/ha [2, 10] [%]	pest or weed control at 31 g/ha [3, 11] [%]	pest or weed control at 125 g/ha [3, 12] [%]	pest or weed control at 250 g/ha [3, 13] [%]	Plant response rating, Nightshade [1, 16]	Plant response rating, Nightshade ([1]; 125 g ai/ha, scale 0 to 100)	Velvetleaf plant response rating [2, 17]	Velvetleaf plant response rating [2, 18]	Plant response rating, Velvetleaf [2, 21]	Plant response rating, Velvetleaf [2, 22]	Nutsedge, Yellow plant response rating [3, 17]	Nutsedge, Yellow plant response rating [3, 18]	Plant response rating, Nutsedge, Yellow [3, 21]	Plant response rating, Nutsedge, Yellow [3, 22]	also measured
Nc1nc(C2CC2)nc(C(=O)OCc2ccccc2)c1Cl [Compound 78, phenylmethyl 6-amino-5-chloro-2-cyclopropyl-4-pyrimidinecarboxylate]	30	60	50	95	100	55	70	0	0	0	–	–	–	–	–	–	–	–	–	–	pest or weed control at 16 g/ha ([1]; Solanum, pre-emergence, 16 g ai/ha, scale 0 to 100, 0 no effect, 100 complete control, read-out: Plant response rating, Nightshade): 0%; pest or weed control at 62 g/ha ([2]; Abutilon theophrasti, post-emergence, Postemergence, 62 g ai/ha, read-out: Plant response rating (scale of 0 to 100), Velvetleaf): 80%; pest or weed control at 16 g/ha ([2]; Abutilon theophrasti, pre-emergence, Preemergence, 16 g ai/ha, scale 0 to 100, 0 no effect, 100 complete control, read-out: Plant response rating, Velvetleaf): 10%; pest or weed control at 62 g/ha ([3]; Cyperus, post-emergence, Postemergence, 62 g ai/ha, read-out: Plant response rating (scale of 0 to 100), Nutsedge, Yellow): 0%; pest or weed control at 16 g/ha ([3]; Cyperus, pre-emergence, Preemergence, 16 g ai/ha, scale 0 to 100, 0 no effect, 100 complete control, read-out: Plant response rating, Nutsedge, Yellow): 0%; pest or weed control at 31 g/ha [3, 14]: 0%; pest or weed control at 62 g/ha [3, 15]: 0%
CCCOC(=O)c1nc(C2CC2)nc(N)c1Br [Compound 15]	–	–	–	–	–	–	–	–	–	–	95	100	65	70	80	95	0	0	0	0	Plant response rating, Nightshade ([1]; 250 g ai/ha, scale 0 to 100): 100; Plant response rating, Nightshade ([1]; 500 g ai/ha, scale 0 to 100): 100; Plant response rating, Velvetleaf [2, 19]: 85; Plant response rating, Velvetleaf [2, 20]: 90; Plant response rating, Velvetleaf [2, 23]: 100; Plant response rating, Velvetleaf [2, 24]: 100; Plant response rating, Nutsedge, Yellow [3, 19]: 0; Plant response rating, Nutsedge, Yellow [3, 20]: 0; Plant response rating, Nutsedge, Yellow [3, 23]: 0; Plant response rating, Nutsedge, Yellow [3, 24]: 20
COC(=O)c1nc(C2CC2)nc(N=CN(C)C)c1Br [Compound 19]	–	–	–	–	–	–	–	–	–	–	100	100	50	60	40	65	0	0	0	0	Plant response rating, Nightshade ([1]; 16 g ai/ha, scale 0 to 100, 0 no effect, 100 complete control): 0; Plant response rating, Nightshade ([1]; 31 g ai/ha, scale 0 to 100, 0 no effect, 100 complete control): 40; Plant response rating (scale of 0 to 100), Velvetleaf ([2]; Postemergence, 16 g ai/ha): 30; Plant response rating (scale of 0 to 100), Velvetleaf ([2]; Postemergence, 31 g ai/ha): 40; Plant response rating, Velvetleaf [2, 25]: 25; Plant response rating, Velvetleaf [2, 26]: 35; Plant response rating (scale of 0 to 100), Nutsedge, Yellow ([3]; Postemergence, 16 g ai/ha): 0; Plant response rating (scale of 0 to 100), Nutsedge, Yellow ([3]; Postemergence, 31 g ai/ha): 0; Plant response rating, Nutsedge, Yellow [3, 25]: 0; Plant response rating, Nutsedge, Yellow [3, 26]: 0
COC(=O)c1nc(C2CC2)nc(N)c1Br [Compound 2, methyl 6-amino-5-bromo-2-cyclopropyl-4-pyrimidinecarboxylate]	0	20	65	80	100	20	50	0	0	20	–	–	–	–	–	–	–	–	–	–	pest or weed control at 125 g/ha ([1]; Solanum, pre-emergence, 125 g ai/ha, scale 0 to 100, read-out: Plant response rating, Nightshade): 100%; pest or weed control at 250 g/ha ([1]; Solanum, pre-emergence, 250 g ai/ha, scale 0 to 100, read-out: Plant response rating, Nightshade): 100%; pest or weed control at 62 g/ha ([2]; Abutilon theophrasti, post-emergence, Postemergence, 62 g ai/ha, scale 0 to 100 (0 no effect, 100 complete control), read-out: Velvetleaf plant response rating): 70%; pest or weed control at 125 g/ha ([2]; Abutilon theophrasti, pre-emergence, Preemergence, 125 g ai/ha, scale 0 to 100, read-out: Plant response rating, Velvetleaf): 75%; pest or weed control at 250 g/ha ([2]; Abutilon theophrasti, pre-emergence, Preemergence, 250 g ai/ha, scale 0 to 100, read-out: Plant response rating, Velvetleaf): 90%; pest or weed control at 62 g/ha ([3]; Cyperus, post-emergence, Postemergence, 62 g ai/ha, scale 0 to 100 (0 no effect, 100 complete control), read-out: Nutsedge, Yellow plant response rating): 0%; pest or weed control at 31 g/ha [3, 14]: 0%; pest or weed control at 62 g/ha [3, 15]: 0%; pest or weed control at 125 g/ha ([3]; Cyperus, pre-emergence, Preemergence, 125 g ai/ha, scale 0 to 100, read-out: Plant response rating, Nutsedge, Yellow): 0%; pest or weed control at 250 g/ha ([3]; Cyperus, pre-emergence, Preemergence, 250 g ai/ha, scale 0 to 100, read-out: Plant response rating, Nutsedge, Yellow): 0%
CN(C)N=Cc1nc(C2CC2)nc(N)c1Br [Compound 50]	–	–	–	–	–	–	–	–	–	–	95	100	50	55	65	75	0	0	0	0	Plant response rating, Nightshade ([1]; 250 g ai/ha, scale 0 to 100): 100; Plant response rating, Nightshade ([1]; 500 g ai/ha, scale 0 to 100): 100; Plant response rating, Velvetleaf [2, 19]: 70; Plant response rating, Velvetleaf [2, 20]: 80; Plant response rating, Velvetleaf [2, 23]: 85; Plant response rating, Velvetleaf [2, 24]: 100; Plant response rating, Nutsedge, Yellow [3, 19]: 0; Plant response rating, Nutsedge, Yellow [3, 20]: 0; Plant response rating, Nutsedge, Yellow [3, 23]: 0; Plant response rating, Nutsedge, Yellow [3, 24]: 0

From US8802597B2, “Herbicidal pyrimidines” (E I du Pont de Nemours and Company, priority 2003, dated 2014)
